ChEMBL document CHEMBL1152009, “Synthesis and biological activity of some 3-acryloxymethyl cephalosporins” (Bioorg Med Chem Lett, 1995)
Converted amounts (≈) assume the structure as drawn.

How the values were obtained:
Moraxella catarrhalis = assay: In vitro antibacterial activity against Branhamella catarrhalis Ravasio (resistance due to beta-lactamase); format: functional
Escherichia coli [1] = assay: In vitro antibacterial activity against Escherichia coli 1077 (resistance due to beta-lactamase); format: functional
Escherichia coli [2] = assay: In vitro antibacterial activity against Escherichia coli ESS; format: functional
Escherichia coli [3] = assay: In vitro antibacterial activity against Escherichia coli JT425 (resistance due to beta-lactamase); format: functional
Escherichia coli [4] = assay: In vitro antibacterial activity against Escherichia coli 10418; format: functional
Haemophilus influenzae [5] = assay: In vitro antibacterial activity against Haemophilus influenzae Q1; format: functional
Klebsiella pneumoniae = assay: In vitro antibacterial activity against Klebsiella pneumoniae T767; format: functional
Morganella morganii = assay: In vitro antibacterial activity against Morganella morganii T361; format: functional
Proteus mirabilis = assay: In vitro antibacterial activity against Proteus mirabilis C977; format: functional
Pseudomonas aeruginosa [6] = assay: In vitro antibacterial activity against Pseudomonas aeruginosa 10662; format: functional
Staphylococcus aureus [7] = assay: In vitro antibacterial activity against Staphylococcus aureus Russell (resistance due to beta-lactamase); format: functional
Streptococcus pneumoniae [8] = assay: In vitro antibacterial activity against Streptococcus pneumoniae 1716; format: functional
Streptococcus pneumoniae [9] = assay: In vitro antibacterial activity against Streptococcus pneumoniae PU7 (resistance due to modified target enzyme; format: functional
Streptococcus agalactiae = assay: In vitro antibacterial activity against Streptococcus agalactiae 2798; format: functional
Staphylococcus aureus [10] = assay: In vitro antibacterial activity against Staphylococcus aureus MB9; format: functional
Staphylococcus aureus [11] = assay: In vitro antibacterial activity against Staphylococcus aureus Oxford; format: functional
Streptococcus pyogenes = assay: In vitro antibacterial activity against Streptococcus pyogenes CN10; format: functional
[12] = test system: Staphylococcus epidermidis; assay: In vitro antibacterial activity against Staphylococcus epidermidis PHLN20; format: functional
Enterococcus faecalis [13] = assay: In vitro antibacterial activity against Streptococcus faecalis I; format: functional
Staphylococcus aureus [14] = assay: In vitro antibacterial activity against Staphylococcus aureus V573 (resistance due to modified target enzyme); format: functional
[15] = Half-life in a rat liver homogenate preparation; format: ADME
Haemophilus influenzae [16] = assay: In vitro antibacterial activity against Haemophilus influenzae NEMC (resistance due to beta-lactamase); format: functional
Enterococcus faecalis [17] = assay: In vitro antibacterial activity against S. faecalis I; format: functional
Pseudomonas aeruginosa [18] = assay: In vitro antibacterial activity was determined against Pseudomonas aeruginosa 10662; format: functional
Staphylococcus aureus [19] = assay: In vitro antibacterial activity against Staphylococcus aureus Russell (resistance due to beta-lactamase; format: functional
Streptococcus pneumoniae [20] = assay: In vitro antibacterial activity against Streptococcus pneumoniae PU7 (resistance due to modified target enzyme); format: functional
Staphylococcus aureus [21] = assay: In vitro antibacterial activity against S. aureus MB9; format: functional

| Structure (SMILES) | MIC (Moraxella catarrhalis) [µg/mL] | MIC (Escherichia coli [1]) [µg/mL] | MIC (Escherichia coli [2]) [µg/mL] | MIC (Escherichia coli [3]) [µg/mL] | MIC (Escherichia coli [4]) [µg/mL] | MIC (Haemophilus influenzae [5]) [µg/mL] | MIC (Klebsiella pneumoniae) [µg/mL] | MIC (Morganella morganii) [µg/mL] | MIC (Proteus mirabilis) [µg/mL] | MIC (Pseudomonas aeruginosa [6]) [µg/mL] | MIC (Staphylococcus aureus [7]) [µg/mL] | MIC (Streptococcus pneumoniae [8]) [µg/mL] | MIC (Streptococcus pneumoniae [9]) [µg/mL] | MIC (Streptococcus agalactiae) [µg/mL] | MIC (Staphylococcus aureus [10]) [µg/mL] | MIC (Staphylococcus aureus [11]) [µg/mL] | MIC (Streptococcus pyogenes) [µg/mL] | MIC [12] [µg/mL] | MIC (Enterococcus faecalis [13]) [µg/mL] | MIC (Staphylococcus aureus [14]) [µg/mL] | also measured |
| --- | --- | --- | --- | --- | --- | --- | --- | --- | --- | --- | --- | --- | --- | --- | --- | --- | --- | --- | --- | --- | --- |
| C/C=C(\C)C(=O)OCC1=C(C(=O)O)N2C(=O)[C@@H](NC(=O)/C(=N\O)c3cnc(N)s3)[C@H]2SC1 | 4 (≈ 8.31 µM) | 0.25 (≈ 0.519 µM) | ≤ 0.03 | 0.5 (≈ 1.04 µM) | 0.12 (≈ 0.249 µM) | ≤ 0.03 | 0.5 (≈ 1.04 µM) | 0.12 (≈ 0.249 µM) | 0.25 (≈ 0.519 µM) | > 64 | 0.5 (≈ 1.04 µM) | ≤ 0.03 | 0.5 (≈ 1.04 µM) | ≤ 0.03 | 0.5 (≈ 1.04 µM) | 0.25 (≈ 0.519 µM) | ≤ 0.03 | 0.25 (≈ 0.519 µM) | > 64 | 8 (≈ 16.6 µM) |  |
| CC(=O)OCC1=C(C(=O)O)N2C(=O)[C@@H](NC(=O)/C(=N\O)c3cnc(N)s3)[C@H]2SC1 | 2 (≈ 4.53 µM) | 0.06 (≈ 0.136 µM) | < 0.03 | 1 (≈ 2.27 µM) | 0.06 (≈ 0.136 µM) | 0.12 (≈ 0.272 µM) | 0.06 (≈ 0.136 µM) | 0.06 (≈ 0.136 µM) | 0.06 (≈ 0.136 µM) | > 32 | 0.5 (≈ 1.13 µM) | 0.06 (≈ 0.136 µM) | 2 (≈ 4.53 µM) | 0.06 (≈ 0.136 µM) | 0.5 (≈ 1.13 µM) | 0.25 (≈ 0.566 µM) |  | 0.25 (≈ 0.566 µM) |  | > 32 | half-life [15]: ≤ 15 min; MIC (Haemophilus influenzae [16]): 0.06 µg/mL (≈ 0.136 µM); MIC (Enterococcus faecalis [17]): 4 µg/mL (≈ 9.06 µM) |
| CC(C)=CC(=O)OCC1=C(C(=O)O)N2C(=O)[C@@H](NC(=O)/C(=N\O)c3cnc(N)s3)[C@H]2SC1 | 4 (≈ 8.31 µM) | 0.25 (≈ 0.519 µM) | < 0.03 | 0.5 (≈ 1.04 µM) | 0.06 (≈ 0.125 µM) | 0.06 (≈ 0.125 µM) | 0.5 (≈ 1.04 µM) | 0.25 (≈ 0.519 µM) | 0.25 (≈ 0.519 µM) |  |  | < 0.03 |  | < 0.03 | 0.5 (≈ 1.04 µM) | 0.25 (≈ 0.519 µM) | < 0.03 | 0.25 (≈ 0.519 µM) | 8 (≈ 16.6 µM) | 8 (≈ 16.6 µM) | MIC (Haemophilus influenzae [16]): < 0.03 µg/mL; MIC (Pseudomonas aeruginosa [18]): > 64 µg/mL; MIC (Staphylococcus aureus [19]): 0.5 µg/mL (≈ 1.04 µM); MIC (Streptococcus pneumoniae [20]): 0.5 µg/mL (≈ 1.04 µM) |
| C=C(C)C(=O)OCC1=C(C(=O)O)N2C(=O)[C@@H](NC(=O)/C(=N\O)c3cnc(N)s3)[C@H]2SC1 | 0.5 (≈ 1.07 µM) | 0.06 (≈ 0.128 µM) | < 0.03 | 0.12 (≈ 0.257 µM) | < 0.03 | < 0.03 | 0.12 (≈ 0.257 µM) | 0.06 (≈ 0.128 µM) | 0.06 (≈ 0.128 µM) | 64 (≈ 137 µM) | 0.25 (≈ 0.535 µM) | < 0.03 | 1 (≈ 2.14 µM) | < 0.03 |  | 0.06 (≈ 0.128 µM) | < 0.03 | 0.06 (≈ 0.128 µM) | 32 (≈ 68.5 µM) | 2 (≈ 4.28 µM) | MIC (Staphylococcus aureus [21]): 0.25 µg/mL (≈ 0.535 µM) |
| CO/N=C(\C(=O)N[C@@H]1C(=O)N2C(C(=O)O)=C(COC(C)=O)CS[C@H]12)c1csc(N)n1 [CEFOTAXIME] | 0.25 (≈ 0.549 µM) |  | < 0.03 | 0.5 (≈ 1.1 µM) | < 0.03 | < 0.03 | 0.06 (≈ 0.132 µM) | 2 (≈ 4.39 µM) | < 0.03 | 16 (≈ 35.1 µM) | 2 (≈ 4.39 µM) | < 0.03 | 2 (≈ 4.39 µM) | 0.12 (≈ 0.263 µM) | 4 (≈ 8.78 µM) | 2 (≈ 4.39 µM) | < 0.03 | 1 (≈ 2.2 µM) |  | 32 (≈ 70.3 µM) | half-life [15]: ≤ 15 min; MIC (Enterococcus faecalis [17]): > 64 µg/mL |
